# In patent publication EP1129112B1, “PEPTIDES CONTAINING A CHOLESTEROL RECOGNITION SEQUENCE AND THEIR USES” (Georgetown University, priority 1998, dated 1999):
# Assays:
# PBR = target: T1, PBR (Mus musculus, UniProt P50637); assay: Ligand-induced release of 3H-cholesterol from membranes of IPTG-induced transformed bacteria; assay type: biochemical; settings: Fig. 3F
# T1 construct: inferred from vector pET15b with insertion at NdeI) (N); made in house; host or cells: Escherichia coli BL21(DE3), IPTG-induced; whole bacteria or bacterial membranes
# Procedure: ^3H-Cholesterol uptake by E. coli cells was examined using the indicated concentrations of control or IPTG-treated transformed bacteria incubated in the presence of 6.7 nM ^3H-cholesterol (50.0 Ci/mmol) for 60 min at 37°C. Specific cholesterol uptake is defined as IPTG-induced minus basal values, E. coli protoplasts were prepared from cells grown in LB at 37°C to the logarithmic phase of growth and centrifuged at 10,000g for 5 min. The cells were washed twice in 10mM Tris-HCl buffer [pH8.0] and the pellet was resuspended in a solution containing 20%(w/w) sucrose and 0.1M Tris-HCl [pH8.0]. The cells were then suspended in 1ml of buffer per 10 OD450 and mixed. Within 1 min lysozyme was added from a 2mg/ml stock solution in distilled water to a final concentration of 100 ug/ml at 37°C, and stirring was continued for the next 12 min. The cell suspension was diluted 1:10 with 0.1M Na2EDTA prewarmed to 37°C. Continuous stirring and slow dilution over 2.5 min prevented cell lysis. More than 99% of the cells became spherical within 10 minutes (Weiss, R. L. 1978, Meth. Cell Biol. 20:141-147).
# recombinant mPBR = target: T2, recombinant mPBR (Mus musculus, UniProt P50637); assay: 3H-PK 11195 radioligand binding to IPTG-induced recombinant PBR in E. coli (Scatchard analysis); settings: 3H-PK 11195 binding, IPTG-induced E. coli transfected with mouse PBR cDNA
# T2 construct: inferred from vector pET15b with insertion at NdeI) (N); made in house; host or cells: Escherichia coli BL21(DE3), IPTG-induced; whole bacteria or bacterial membranes
# Procedure: Binding specificity of the IPTG-induced PBR in E. coli was determined in binding studies where specific binding of ^3H-PK 11195 (1.0 nM) was measured in the presence of the indicated concentrations of the indicated ligands.
# Radioligand binding assays- ^3H-1- (2-chlorophenyl)-N-methyl-N-(1-methyl-propyl)-3-isoquinolinecarboxamide (PK 11195) binding studies were performed as we previously described (Papadopoulos, V. et al. 1990, J. Biol. Chem. 265: 3772-3779; Garnier, M. et al. 1994, Mol. Pharm. 45:201-211). The dissociation constant (Kd) and the number of binding sites (Bmax) were determined by Scatchard plot analysis of the data using the LIGAND program (Munson, P. J. and Rodbard, D. 1980, Anal. Biochem. 107:220-239).
# isolated mitochondria = settings: cited from earlier work
Compound,release of cholesterol from cholesterol-loaded bacterial membranes (PBR),Bmax (recombinant mPBR),Kd (recombinant mPBR),ability to mimic the effect of DBI on mitochondrial steroidogenesis (isolated mitochondria)
"CCC(C)N(C)C(=O)c1cc2ccccc2c(-c2ccccc2Cl)n1 (centres unmarked) [PK 11195, 1-(2-chlorophenyl)-N-methyl-N-(1-methyl-propyl)-3-isoquinolinecarboxamide]",cholesterol was liberated from the membranes,0.23 pmol/mg protein,1.1 nM,
"ODN: octadecaneuropeptide (DBI33-50) (KQATVGDINTERPGMLDF; Octadecaneuropeptide; UniProt P07108 33-50, looked up, fragment)",,,,not
"TTN: triakontatetrapeptide, naturally occurring processing product of DBI (KTKPSDEEMLFIYGHYKQATVGDINTERPGMLDF; Triakontatetraneuropeptide; UniProt P07108 17-50, looked up, fragment)",,,,able to mimic the effect of DBI
